Values quoted from earlier work as cited in patent US11612656B2, “Use of small molecule based on indotricarbocyanine structure in preparation of medicines for tumor photothermal therapy” (Nanjing Nuoyuan Medical Devices Co., LTD., priority 2021, dated 2023).

Settings: free ICG 20 μg/ml, light irradiation at power density 1 W/cm^2

CC1(C)C(/C=C/C=C/C=C/C=C2/N(CCCCS(=O)(=O)O)c3ccc4ccccc4c3C2(C)C)=[N+](CCCCS(=O)(=O)O)c2ccc3ccccc3c21.[Na+] [ICG, Indocyanine green]
photothermal conversion efficiency (PTCE): 15.1%
